# Laboratory results reported in US11331339B2, “Compound composition with function of promoting bone and joint health and application thereof” (Chenland Nutritionals, Inc., priority 2019, dated 2022).
# Assays:
# IL-1β = assay: Test I: IL-1β content in serum of rats injected with papain, administered 28 days; format: in vivo, wistar rats; conditions: rat serum, papain model, daily dosage 126 mg/kg
# Method: Male wistar rats are randomly divided into a control group, a model group and an experimental group. Each group includes 10 rats. The rats are injected with papain for molding. The rats are administered for 28 days at the same time of molding. Before the rats are put to death, blood is taken from the abdominal vein and centrifuged to obtain serum. The IL-1β content is detected. Specific results are shown in Table 1: The blank group includes normal rats for arthritis modeling. The model group includes rats not administered after modeling. The experimental administration group administers the product of the present invention to the rats. The glucosamine sulfate control group administers glucosamine to the rats. The glucosamine+chondroitin sulfate+collagen control group administers glucosamine+chondroitin sulfate+collagen to the rats. IL-1β is an inflammatory factor in the serum. Normal rats contain the lowest levels of inflammatory factors, and the rats with arthritis but not administered contain the highest levels of inflammatory factors. If different products are administered to rats, the degree of arthritis is alleviated to a certain extent and the levels of inflammatory factors in the rats are reduced to be lower than that of the highest model group, but higher than normal rats.
# IL-6 = assay: Test I: IL-6 content in serum of rats, same administration time and same dosage; format: in vivo, wistar rats; conditions: rat serum, daily dosage 125 mg/kg
# Method: Male wistar rats are randomly divided into a control group, a model group and an experimental group. Each group includes 10 rats. The rats are injected with papain for molding. The rats are administered for 28 days at the same time of molding. Before the rats are put to death, blood is taken from the abdominal vein and centrifuged to obtain serum. The IL-1β content is detected. Specific results are shown in Table 1: In addition, to verify the technical solution of the present invention and small daily dosage of the single glucosamine, the inventor respectively experiments the male wistar rats in the same administration time and under the same administration dosage, and detects the IL-6 content in the serum.
# [1] = system: wistar rats injected with papain; assay: Test II: tenderness thresholds at modeling joints, measured with a tenderness meter; format: in vivo; conditions: papain model, 28 days, daily dosage 126 mg/kg
# Method: Male wistar rats are randomly divided into a control group, a model group and an experimental group. Each group includes 10 rats. The rats are injected with papain for molding. The rats are administered for 28 days at the same time of molding. Before the rats are put to death, the tenderness thresholds at modeling joints are measured with a tenderness meter.
# [2] = system: wistar rats injected with papain; assay: Test IV: walking pain score from sole marks; format: in vivo; conditions: score 0-4, papain model, 28 days, daily dosage 126 mg/kg
# Method: Male wistar rats are randomly divided into a control group, a model group and an experimental group. Each group includes 10 rats. The rats are injected with papain for molding. The rats are administered for 28 days at the same time of molding. Before the rats are put to death, the left and right soles of the rats are evenly imprinted with printing ink of the same color and the rats walk by 0.4 m on a self-made semi-closed rat walking passage. The sole marks are photographed. Three persons independently score the walking pain based on the sole photos according to the following scoring standard for walking pain and measure the walking pain (when the limbs have a pain reaction, the rats move with the minimum contact area of the paws to reduce the pressure on the affected limbs; and when the left and right feet are uneven in stress and the gait is changed, the colors of the soles are different). The sole is divided into four regions: if one region of the left sole is darker than the right sole, the score is 1; if two regions are darker, the score is 2; and the score is added in sequence (0-4 scores). […] The rats administered with the product can alleviate the arthritis to a certain extent, and can walk slightly normally, so as to reflect the degree of arthritis according to the walking scores.
smiles,measurement,setting,value
"N[C@H]1C(O)O[C@H](CO)[C@@H](O)[C@@H]1O.O=S(=O)(O)O (some centres unmarked) [Glucosamine sulfate control group 1, Glucosamine sulfate]",IL-1β content,IL-1β,9.456 ± 1.657 ng/L
same,IL-6 content,IL-6; listed as Glucosamine sulfate control group,146.19 ± 18.15 ng/L
same,IL-6 content,IL-6; listed as glucosamine sulfate control group,not obviously lower than the model group
same,Tenderness thresholds,[1],5.607 ± 0.2602 newton
same,Scores of walking pain,[2],0.5 ± 0.2303
